# Results as given in patent publication US8455658B2, “Thiazole and thiadiazole compounds for inflammation and immune-related uses” (Synta Pharmaceuticals Corp., priority 2006, dated 2013).
# Structures can show the parent of a compound that is named as a salt.
# Test system: IL-2 production
# Experiment: Inhibition of IL-2 production in PHA-activated Jurkat cells (ELISA)
# Format: cell-based
# Details: Homo sapiens, Jurkat, 20 h, PHA 2.5 μg/mL, IL-2 ELISA
# Method: Jurkat cells were placed in a 96 well plate (0.5 million cells per well in 1% FBS medium) then a test compound of this invention was added at different concentrations. After 10 minutes, the cells were activated with PHA (final concentration 2.5 μg/mL) and incubated for 20 hours at 37° C. under CO2. The final volume was 200 μL. Following incubation, the cells were centrifuged and the supernatants collected and stored at −70° C. prior to assaying for IL-2 production. A commercial ELISA kit (IL-2 Eli-pair, Diaclone Research, Besancon, France) was used to detect production of IL-2, from which dose response curves were obtained.
row,IC50 [µM],Compound
1,> 1,"O=C(Nc1nc(C2=NCCN2)c(-c2cccc(C(F)(F)F)c2)s1)c1c(F)cccc1F [Compound 77, N-(4-(4,5-Dihydro-1H-imidazol-2-yl)-5-(3-(trifluoromethyl)phenyl)thiazol-2-yl)-2,6-difluorobenzamide]"
2,> 1,"CCOC(=O)c1nc(-c2nc(NC(=O)c3c(F)cccc3F)sc2-c2cccc(C(F)(F)F)c2)c(C)s1 [Compound 96, Ethyl 2′-(2,6-difluorobenzamido)-5-methyl-5′-(3-(trifluoromethyl)phenyl)-4,4′-bithiazole-2-carboxylate]"
3,0.1 to 0.2,"COC(=O)c1cccc(-c2sc(C(=O)Nc3c(F)cccc3F)nc2C)c1 [Compound 117, methyl 3-(2-(2,6-difluorophenylcarbamoyl)-4-methylthiazol-5-yl)benzoate]"
4,> 1,"Cc1cnccc1NC(=O)c1nc(C)c(-c2cccc(C(F)(F)F)c2)s1 [Compound 120, 4-methyl-N-(3-methylpyridin-4-yl)-5-(3-(trifluoromethyl)phenyl)thiazole-2-carboxamide]"
5,> 1,"O=C(Nc1nc(-c2ncc[nH]2)c(-c2cccc(C(F)(F)F)c2)s1)c1c(F)cccc1F [Compound 78, N-(4-(1H-Imidazol-2-yl)-5-(3-(trifluoromethyl)phenyl)thiazol-2-yl)-2,6-difluorobenzamide hydrochloride]"
6,> 1,"Nc1nc(-c2nc(NC(=O)c3c(F)cccc3F)sc2-c2cccc(C(F)(F)F)c2)cs1 [Compound 87, N-(2′-amino-5-(3-(trifluoromethyl)phenyl)-4,4′-bithiazol-2-yl)-2,6-difluorobenzamide]"
7,0.03 to 0.05,"Cc1ccc(-c2nccs2)cc1-c1ncc(C(=O)Nc2c(F)cccc2F)s1 [Compound 122, N-(2,6-difluorophenyl)-2-(2-methyl-5-(thiazol-2-yl)phenyl)thiazole-5-carboxamide]"
8,0.2 to 0.5,"O=C(Nc1nc(-c2nnco2)c(-c2cccc(C(F)(F)F)c2)s1)c1c(F)cccc1F [Compound 90, N-(4-(1,3,4-oxadiazol-2-yl)-5-(3-(trifluoromethyl)phenyl)thiazol-2-yl)-2,6-difluorobenzamide]"
9,< 0.03,"O=C(Nc1c(F)cccc1F)c1ncc(-c2cc(C(F)(F)F)ccc2Cl)s1 [Compound 129, 5-(2-chloro-5-(trifluoromethyl)phenyl)-N-(2,6-difluorophenyl)thiazole-2-carboxamide]"
10,> 1,"CC(O)c1nc(NC(=O)c2c(F)cccc2F)sc1-c1cccc(C(F)(F)F)c1 (stereo not shown) [Compound 74, 2,6-Difluoro-N-(4-(1-hydroxyethyl)-5-(3-(trifluoromethyl)phenyl)thiazol-2-yl)benzamide]"
11,> 1,"O=C(O)c1nc(NC(=O)c2c(F)cccc2F)sc1-c1cccc(C(F)(F)F)c1 [Compound 66, 2-(2,6-difluorobenzamido)-5-(3-(trifluoromethyl)phenyl)thiazole-4-carboxylic acid]"
12,0.2 to 0.5,"CC(=O)c1nc(NC(=O)c2c(F)cccc2F)sc1-c1cccc(C(F)(F)F)c1 [Compound 84, N-(4-Acetyl-5-(3-(trifluoromethyl)phenyl)thiazol-2-yl)-2,6-difluorobenzamide]"
13,> 1,"CCOC(=O)c1nc(-c2sc(NC(=O)c3c(F)cccc3F)nc2C)cs1 [Compound 114a, Ethyl 2′-(2,6-difluorobenzamido)-4′-methyl-4,5′-bithiazole-2-carboxylate]"
14,0.2 to 0.5,"Cc1nc(C(=O)Nc2c(F)cccc2F)sc1-c1cccc(-c2nnco2)c1 [Compound 118, 5-(3-(1,3,4-oxadiazol-2-yl)phenyl)-N-(2,6-difluorophenyl)-4-methylthiazole-2-carboxamide]"
15,0.2 to 0.5,"O=C(Nc1nc(Cl)c(-c2cccc(C(F)(F)F)c2)s1)c1c(F)cccc1F [Compound 103, N-(4-Chloro-5-(3-(trifluoromethyl)phenyl)thiazol-2-yl)-2,6-difluorobenzamide]"
16,0.2 to 0.5,"O=C(Nc1nc(C2=NCCO2)c(-c2cccc(C(F)(F)F)c2)s1)c1c(F)cccc1F [Compound 89, N-(4-(4,5-dihydrooxazol-2-yl)-5-(3-(trifluoromethyl)phenyl)thiazol-2-yl)-2,6-difluorobenzamide]"
17,> 1,"O=C(Nc1c(F)cccc1F)c1cnc(-c2cccc(C(F)(F)F)c2)s1 [Compound 123, N-(2,6-difluorophenyl)-2-(3-(trifluoromethyl)phenyl)thiazole-5-carboxamide]"

# The next lines start with the compound.
row,Compound,IC50 [µM]
1,"COC(=O)c1cccc(-c2sc(NC(=O)c3c(F)cccc3F)nc2C)c1 [Compound 8, 3-[2-(2,6-Difluoro-benzoylamino)-4-methyl-thiazol-5-yl]-benzoic acid methyl ester]",0.2 to 0.5
2,"Cc1nc(NC(=O)c2cccnc2F)sc1-c1cccc(C(F)(F)F)c1 [Compound 50, 2-Fluoro-N-(4-methyl-5-(3-(trifluoromethyl)phenyl)thiazol-2-yl)nicotinamide]",0.2 to 0.5
3,"Cc1nc(NC(=O)c2c(F)cccc2F)sc1-c1cc(C#N)c2c(c1)OCO2 [Compound 58, N-(5-(7-Cyanobenzo[d][1,3]dioxol-5-yl)-4-methylthiazol-2-yl)-2,6-difluorobenzamide]",0.2 to 0.5
4,"COc1ccc(OC)c(-c2sc(NC(=O)c3c(F)cccc3F)nc2C)c1 [Compound 55, N-(5-(2,5-Dimethoxyphenyl)-4-methylthiazol-2-yl)-2,6-difluorobenzamide]",0.2 to 0.5
5,"C=CCOc1ccc(C(F)(F)F)cc1-c1sc(NC(=O)c2c(F)cccc2F)nc1C(=C)C [Compound 64, N-(5-(2-(Allyloxy)-5-(trifluoromethyl)phenyl)-4-(prop-1-en-2-yl)thiazol-2-yl)-2,6-difluorobenzamide]",> 1
6,"Cc1nc(NC(=O)c2c(F)cccc2F)sc1-c1cccc(C(F)(F)F)c1 [Compound 9, 2,6-Difluoro-N-[4-methyl-5-(3-trifluoromethyl-phenyl)-thiazol-2-yl]-benzamide]",0.03 to 0.05
7,"Cc1nc(NC(=O)c2c(F)cccc2F)sc1-c1cc(Br)c2c(c1)OCO2 [Compound 56, N-(5-(7-Bromobenzo[d][1,3]dioxol-5-yl)-4-methylthiazol-2-yl)-2,6-difluorobenzamide]",0.2 to 0.5
8,"COc1ccc(OC)c(-c2csc(NC(=O)c3c(F)cccc3F)n2)c1 [Compound 2, N-[4-(2,5-Dimethoxy-phenyl)-thiazol-2-yl]-2,6-difluoro-benzamide]",> 1
9,"COc1ccc(OC)c(-c2cnc(NC(=O)c3c(F)cccc3F)s2)c1 [Compound 3, N-[5-(2,5-Dimethoxy-phenyl)-thiazol-2-yl]-2,6-difluoro-benzamide]",0.1 to 0.2
10,"Cn1nnc(-c2cccc(-c3cnc(NC(=O)c4c(F)cccc4F)s3)c2)n1 [Compound 7, 2,6-Difluoro-N-{5-[3-(2-methyl-2H-tetrazol-5-yl)-phenyl]-thiazol-2-yl}-benzamide]",> 1

# Same assay, conditions: Homo sapiens, PHA 2.5 μg/mL, 20 hours, IL-2 ELISA
row,Compound,IC50 [µM]
1,"Cc1nc(NC(=O)c2c(F)cccc2F)sc1-c1cccc(C(F)(F)F)c1 [Compound 48, Sodium (2,6-difluorobenzoyl)(4-methyl-5-(3-(trifluoromethyl)phenyl)thiazol-2-yl)amide]",0.05 to 0.1
